Measured values reported in patent publication US6184207A, “Inhibitors of peptide binding to MHC class II proteins” (Zeneca Limited, priority 1996, dated 2001).

Experiments:
HLA-DR4Dw4 = molecular target: T1, HLA-DR4Dw4 (Homo sapiens, UniProt P01903+P01911, A100K/A169T/F76Y/I96L/K127E/L162R/M171V/N62H/P40V/Q125Y/R42H/S133A/S149N/S66Y/V115G/V209L/W38E); assay: Test A: Purified HLA-DR peptide in vitro binding assay; details: inhibition of biotin-FHA 307-320 binding to purified HLA-DR4Dw4, 48 hours
T1 construct: a cDNA encoding the β chain is cloned into the transfer vector pAcUW1; made in house; host or cells: Sf21 insect cells, double-recombinant baculovirus
From the text: The utility of the peptides of the formula I, or a pharmaceutically acceptable salt thereof, may be assessed using a variety of standard tests and clinical studies, including those described in International Patent Application, Publication Nos. WO92/02543, WO93/05011 and WO95/07707 (or modifications thereof) and those described below. The peptides of formula I show significant activity in one or more of such tests or studies. Test A: Purified HLA-DR peptide in vitro binding assay. […]. […] The reaction is stopped by adding 2M sulphuric acid (10 μl per well) and the absorbance read at 450 nm to quantify the amount of peptide bound. The inhibitory activity of peptides is obtained by plotting absorbance against concentration. […]
A cDNA encoding the sequence of the α polypeptide is cloned into the transfer vector pacYM1 [Matsuura, Y; Possce, RD; Overton, HA & Bishop, DHL (1987) J. Gen. […] The molecular genetic techniques used to construct the recombinant vectors are likewise readily available in the literature and are most fully described by Sambrook, J; Fritsch, EF & Maniatis T, (1989) [Molecular Cloning. […]

BALB/C mice = assay: Test C: Peptide stimulated DTH (delayed type hypersensitivity) in BALB/C mice; assay type: in vivo; details: ovalbumin DTH footpad swelling, 3-day osmotic mini-pumps
Description: Test C: Peptide stimulated DTH (delayed type hypersensitivity) in BALB/C mice. […] Balb/c female mice (18-20 g), 5 per group, were immunised sub-cutaneously on the flank with 0.1 ml of an emulsion of ovalbumin (Sigma) (2 mg/ml in saline) mixed 1:1 (v/v) with complete Freunds adjuvant (Sigma). Seven days later footpad thickness was detemined using a dual caliper micrometer followed by a challenge in one hind footpad with a 30 μl sub-plantar injection of 1% heat-aggregated ovalbumin protein in saline. Twenty-four hours after antigen challenge, footpads were measured and the DTH response calculated as the percentage increase in footpad thickness in the injected footpad compared to contralateral control. Inhibitors were adminstered by 3-day osmotic mini-pumps (Alzet) implanted 24 hours prior to antigen challenge at doses ranging from 10 mg/kg/day to 0.1 μg/kg/day. The degree of inhibition was calculated by substracting the value for swelling of inhibitor treated footpads from that of the vehicle dosed controls, dividing by the control value and multiplying by 100%.

Q: For `C[C@H](NC(=O)CN1CCCC(NC(=O)[C@@H](NC(=O)[C@H](C)NC(=O)[C@H](C)NC(=O)[C@H](C)NC(=O)[C@H](CCCNC(=N)N)NC(=O)CCCCc2ccccc2)[C@@H](C)O)C1=O)C(=O)Nc1ccc(CC(N)=O)cc1` (stereo partly drawn) [Example 1, Phv-Arg-Ala-Ala-Ala-Thr-II-Ala-Papa-NH2], which “concentration showing significant binding to HLA-DR4Dw4 in Test A” value (HLA-DR4Dw4) is on record?
A: ≤ 0.1 µM

Q: And the “dose at which active in Test C” value (BALB/C mice)?
A: < 0.1 mg/kg/day
